Key:
Experiment in all cases: kinase binding screen (kinase-tagged T7 phage, qPCR), % Ctrl
[1] = target: RPS6KA2(Kin.Dom.2-C-terminal) (Homo sapiens, UniProt Q15349)
Method in brief: (§1)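 Kinase-tagged T7 phage lysates were prepared in E. coli (MOI 0.4, 32° C until lysis), then exposed to ligand-bearing beads and test compound at a fixed concentration. Kinase remaining bound was eluted and measured by qPCR.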

PRKCE = target: T1, PRKCE (Homo sapiens, UniProt Q02156)
T1 sequence (Q02156 1-737): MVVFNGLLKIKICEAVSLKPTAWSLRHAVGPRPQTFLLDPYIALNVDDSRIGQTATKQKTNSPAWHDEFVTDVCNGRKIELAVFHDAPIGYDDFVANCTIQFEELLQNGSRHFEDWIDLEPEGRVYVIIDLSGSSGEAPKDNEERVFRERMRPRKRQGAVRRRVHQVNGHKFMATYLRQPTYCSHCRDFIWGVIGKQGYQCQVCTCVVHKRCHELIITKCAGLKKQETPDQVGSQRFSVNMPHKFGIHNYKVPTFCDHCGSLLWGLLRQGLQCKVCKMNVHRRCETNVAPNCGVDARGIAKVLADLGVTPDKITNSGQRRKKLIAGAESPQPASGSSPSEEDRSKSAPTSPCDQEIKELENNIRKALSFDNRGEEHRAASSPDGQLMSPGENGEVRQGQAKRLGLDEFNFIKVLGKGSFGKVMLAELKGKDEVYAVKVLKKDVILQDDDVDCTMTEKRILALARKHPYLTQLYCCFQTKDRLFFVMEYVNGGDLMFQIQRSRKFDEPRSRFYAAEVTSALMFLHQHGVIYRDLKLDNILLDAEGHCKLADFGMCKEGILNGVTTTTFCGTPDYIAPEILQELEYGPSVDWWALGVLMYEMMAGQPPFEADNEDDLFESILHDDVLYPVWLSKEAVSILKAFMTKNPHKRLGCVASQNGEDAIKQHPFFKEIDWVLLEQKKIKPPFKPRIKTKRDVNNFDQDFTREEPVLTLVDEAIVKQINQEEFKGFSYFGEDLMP
Method in brief: as §1

PIK3C2G = target: T2, PIK3C2G (Homo sapiens, UniProt O75747)
T2 sequence (O75747 1-1486): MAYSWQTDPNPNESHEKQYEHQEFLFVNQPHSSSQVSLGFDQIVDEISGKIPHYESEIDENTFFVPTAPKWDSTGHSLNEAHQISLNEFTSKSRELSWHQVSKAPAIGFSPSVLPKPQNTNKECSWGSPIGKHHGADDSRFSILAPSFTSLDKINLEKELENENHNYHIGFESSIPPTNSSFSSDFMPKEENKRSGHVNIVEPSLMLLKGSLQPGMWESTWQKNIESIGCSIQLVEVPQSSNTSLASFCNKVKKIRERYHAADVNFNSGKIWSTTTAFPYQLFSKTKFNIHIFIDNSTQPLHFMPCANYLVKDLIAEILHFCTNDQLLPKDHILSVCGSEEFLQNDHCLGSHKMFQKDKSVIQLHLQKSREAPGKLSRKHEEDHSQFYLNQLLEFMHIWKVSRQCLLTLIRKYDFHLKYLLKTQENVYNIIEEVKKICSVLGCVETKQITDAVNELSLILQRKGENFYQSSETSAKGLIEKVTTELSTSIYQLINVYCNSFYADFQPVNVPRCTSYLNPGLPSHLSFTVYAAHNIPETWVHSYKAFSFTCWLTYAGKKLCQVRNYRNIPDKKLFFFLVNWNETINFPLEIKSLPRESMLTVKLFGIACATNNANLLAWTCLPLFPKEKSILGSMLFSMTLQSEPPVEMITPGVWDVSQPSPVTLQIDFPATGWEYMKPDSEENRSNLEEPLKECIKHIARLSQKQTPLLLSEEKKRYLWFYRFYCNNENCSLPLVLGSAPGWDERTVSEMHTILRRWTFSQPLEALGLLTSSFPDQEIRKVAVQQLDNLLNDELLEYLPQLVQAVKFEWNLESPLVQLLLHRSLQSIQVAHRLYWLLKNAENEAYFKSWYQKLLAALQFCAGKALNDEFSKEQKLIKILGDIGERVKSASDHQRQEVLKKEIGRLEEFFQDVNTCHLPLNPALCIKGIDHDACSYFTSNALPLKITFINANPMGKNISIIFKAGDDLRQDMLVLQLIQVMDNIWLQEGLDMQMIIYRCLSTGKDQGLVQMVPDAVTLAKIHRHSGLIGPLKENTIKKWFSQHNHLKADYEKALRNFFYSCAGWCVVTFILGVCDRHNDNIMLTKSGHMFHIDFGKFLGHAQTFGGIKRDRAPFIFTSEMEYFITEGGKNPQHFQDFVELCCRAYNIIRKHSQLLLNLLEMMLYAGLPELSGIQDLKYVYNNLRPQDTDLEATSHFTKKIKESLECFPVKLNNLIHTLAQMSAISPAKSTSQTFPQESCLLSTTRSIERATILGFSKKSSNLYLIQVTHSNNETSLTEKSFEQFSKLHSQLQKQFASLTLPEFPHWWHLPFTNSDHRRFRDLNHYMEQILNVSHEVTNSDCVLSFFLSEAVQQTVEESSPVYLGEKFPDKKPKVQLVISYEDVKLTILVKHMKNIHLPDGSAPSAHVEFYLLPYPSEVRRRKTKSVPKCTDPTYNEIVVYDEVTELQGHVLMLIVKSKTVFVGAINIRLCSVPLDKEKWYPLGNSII
Method in brief: as §1

PIK4CB = PIK4CB (Homo sapiens, UniProt Q9UBF8)
Chain of PIK4CB (Q9UBF8 whole entry, species assumed): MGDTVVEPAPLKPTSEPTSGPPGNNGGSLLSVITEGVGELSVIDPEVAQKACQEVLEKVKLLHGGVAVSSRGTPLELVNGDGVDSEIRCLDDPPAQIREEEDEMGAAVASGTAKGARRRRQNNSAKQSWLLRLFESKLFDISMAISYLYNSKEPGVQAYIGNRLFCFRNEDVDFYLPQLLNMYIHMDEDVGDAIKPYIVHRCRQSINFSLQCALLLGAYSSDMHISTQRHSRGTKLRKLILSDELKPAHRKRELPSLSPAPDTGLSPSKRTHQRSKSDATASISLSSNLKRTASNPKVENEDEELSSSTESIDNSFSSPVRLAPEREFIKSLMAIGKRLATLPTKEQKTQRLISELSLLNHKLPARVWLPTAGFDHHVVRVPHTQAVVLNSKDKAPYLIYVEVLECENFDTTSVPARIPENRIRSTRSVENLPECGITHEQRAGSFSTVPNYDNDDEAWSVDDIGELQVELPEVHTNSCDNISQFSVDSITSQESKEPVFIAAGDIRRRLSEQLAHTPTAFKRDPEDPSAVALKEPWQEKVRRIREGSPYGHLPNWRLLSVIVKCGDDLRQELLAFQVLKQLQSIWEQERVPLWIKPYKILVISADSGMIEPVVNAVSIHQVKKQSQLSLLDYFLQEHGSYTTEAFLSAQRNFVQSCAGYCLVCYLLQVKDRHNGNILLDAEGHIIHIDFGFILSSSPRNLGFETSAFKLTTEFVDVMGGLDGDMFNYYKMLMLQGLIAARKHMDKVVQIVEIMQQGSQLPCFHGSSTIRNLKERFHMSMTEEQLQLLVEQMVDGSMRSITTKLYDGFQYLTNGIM
Method in brief: as §1

IRAK1 = IRAK1 (Homo sapiens, UniProt P51617)
Chain of IRAK1 (P51617 whole entry, species assumed): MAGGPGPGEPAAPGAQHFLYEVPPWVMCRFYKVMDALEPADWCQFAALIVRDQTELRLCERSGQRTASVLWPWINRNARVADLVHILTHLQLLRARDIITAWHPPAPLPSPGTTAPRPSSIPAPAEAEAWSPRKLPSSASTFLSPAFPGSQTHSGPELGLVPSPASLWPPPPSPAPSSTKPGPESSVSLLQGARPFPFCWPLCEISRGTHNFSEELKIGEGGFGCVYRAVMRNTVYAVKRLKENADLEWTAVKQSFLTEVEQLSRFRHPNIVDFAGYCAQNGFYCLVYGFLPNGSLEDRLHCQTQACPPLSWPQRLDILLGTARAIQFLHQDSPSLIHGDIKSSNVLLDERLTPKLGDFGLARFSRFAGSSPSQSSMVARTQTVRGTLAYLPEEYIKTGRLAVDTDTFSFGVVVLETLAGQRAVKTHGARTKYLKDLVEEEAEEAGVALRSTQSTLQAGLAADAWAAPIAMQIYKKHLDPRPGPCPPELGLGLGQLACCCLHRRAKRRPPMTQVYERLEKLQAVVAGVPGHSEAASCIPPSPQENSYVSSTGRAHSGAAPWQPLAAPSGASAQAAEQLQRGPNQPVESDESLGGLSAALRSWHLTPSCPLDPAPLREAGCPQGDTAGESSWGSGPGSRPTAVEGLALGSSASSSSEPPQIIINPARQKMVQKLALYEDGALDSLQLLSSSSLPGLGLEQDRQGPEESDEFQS
Method in brief: as §1

AAK1 = AAK1 (Homo sapiens, UniProt Q2M2I8)
Chain of AAK1 (Q2M2I8 whole entry): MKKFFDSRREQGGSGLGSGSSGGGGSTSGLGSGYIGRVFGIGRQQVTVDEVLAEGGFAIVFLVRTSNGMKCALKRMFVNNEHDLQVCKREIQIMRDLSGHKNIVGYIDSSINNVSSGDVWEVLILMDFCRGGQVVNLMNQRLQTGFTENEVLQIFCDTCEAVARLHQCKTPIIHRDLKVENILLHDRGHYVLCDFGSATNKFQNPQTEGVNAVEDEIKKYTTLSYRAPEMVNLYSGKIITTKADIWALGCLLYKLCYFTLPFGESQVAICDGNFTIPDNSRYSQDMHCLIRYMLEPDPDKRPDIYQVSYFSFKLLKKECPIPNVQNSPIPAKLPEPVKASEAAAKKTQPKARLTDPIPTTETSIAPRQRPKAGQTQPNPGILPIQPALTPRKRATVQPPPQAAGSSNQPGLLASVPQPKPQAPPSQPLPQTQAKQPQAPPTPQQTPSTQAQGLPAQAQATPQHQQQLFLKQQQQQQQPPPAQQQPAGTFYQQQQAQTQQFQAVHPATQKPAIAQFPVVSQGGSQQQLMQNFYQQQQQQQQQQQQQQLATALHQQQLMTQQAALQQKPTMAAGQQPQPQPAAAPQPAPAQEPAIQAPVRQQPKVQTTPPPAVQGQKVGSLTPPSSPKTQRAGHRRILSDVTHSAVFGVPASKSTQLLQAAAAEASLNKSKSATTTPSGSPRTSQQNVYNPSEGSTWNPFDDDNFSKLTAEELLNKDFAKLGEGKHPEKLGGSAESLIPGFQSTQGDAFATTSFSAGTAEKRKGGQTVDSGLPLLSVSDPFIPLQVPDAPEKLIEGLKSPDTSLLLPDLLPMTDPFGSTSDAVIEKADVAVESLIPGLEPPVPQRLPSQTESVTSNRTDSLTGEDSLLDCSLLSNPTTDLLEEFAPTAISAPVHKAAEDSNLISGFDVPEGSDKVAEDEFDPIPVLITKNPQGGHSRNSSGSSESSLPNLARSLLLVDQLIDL
Method in brief: as §1

Chain of RPS6KA2(Kin.Dom.2-C-terminal) (Q15349 415-672 limits assumed, species assumed): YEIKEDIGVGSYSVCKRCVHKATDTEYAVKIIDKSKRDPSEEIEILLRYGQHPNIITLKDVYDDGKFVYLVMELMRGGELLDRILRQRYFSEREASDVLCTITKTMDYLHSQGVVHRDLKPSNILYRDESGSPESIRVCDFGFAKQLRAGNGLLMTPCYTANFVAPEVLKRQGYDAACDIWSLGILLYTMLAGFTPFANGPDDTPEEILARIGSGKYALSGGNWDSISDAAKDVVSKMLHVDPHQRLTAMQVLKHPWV

Row | remaining activity at 10 µM ([1]; 10 μM) [%] | remaining activity at 10 µM (PRKCE; 10 μM) [%] | remaining activity at 10 µM (PIK3C2G; 10 μM) [%] | remaining activity at 10 µM (PIK4CB; 10 μM) [%] | remaining activity at 10 µM (IRAK1; 10 μM) [%] | remaining activity at 10 µM (AAK1; 10 μM) [%] | Compound | remaining activity at 1 µM [1] [%] | remaining activity at 1 µM (PRKCE) [%] | remaining activity at 1 µM (PIK3C2G) [%] | remaining activity at 1 µM (PIK4CB) [%] | remaining activity at 1 µM (IRAK1) [%] | remaining activity at 1 µM (AAK1) [%]
1 |  |  |  |  |  |  | Nc1nc2c(-c3cnc4ccccc4c3)nccc2[nH]1 [drawing 36, 4-(quinolin-3-yl)-1H-imidazo[4,5-c]pyridin-2-amine] | 100 | 100 | 30 | 37 | 89 | 83
2 | 25 | 100 | 80 | 50 | 35 | 83 | Nc1nc2c(-c3cc(Br)c(Br)[nH]3)nccc2[nH]1 [Ageladine A, ageladine A, reference compound] | 42 | 54 | 99 | 66 | 55 | 90
3 |  |  |  |  |  |  | Nc1nc2c(-c3ccccn3)nccc2[nH]1 [drawing 35, 4-(pyrid-2-yl)-1H-imidazo[4,5-c]pyridin-2-amine] | 68 | 20 | 66 | 88 | 52 | 27

Reference: patent publication US20110152313A1 (MACQUARIE UNIVERSITY, priority 2008, published 2011)
